# From patent US11642342B2, “Combinations of estrogen receptor degraders and cyclin-dependent kinase inhibitors for treating cancer” (Accutar Biotechnology, priority 2019, dated 2023)
# What was measured:
# [1] = tested on: Tamoxifen-resistant MCF7 human xenograft tumors; assay: Anti-tumor efficacy in tamoxifen-resistant MCF7 human xenograft tumors; assay type: in vivo; conditions: tamoxifen-resistant MCF7 xenograft (passage 9), BALB/c nude mouse, treated for 28; versus each agent alone
# Description: Tamoxifen-resistant MCF-7 cells were subcutaneously implanted to establish cell line-derived xenograft tumors. […] This tumor was then defined as passage 0. The tumor fragments were constantly implanted into new animals (per passage) with 30 mg/kg Tamoxifen treatment. For the efficacy study, the passage 9 tamoxifen-resistant tumor fragments (˜30 mm3) were inoculated subcutaneously at the right flank of each BALB/c nude mouse, which has been implanted with 17β-estradiol (0.36 mg) tablet subcutaneously in the left flank three days before. When the average tumor volume reached approximately 175 mm3, the animals were randomized and treated for 28. Tamoxifen-resistant MCF7 human xenograft tumors were treated with an ER degrader 160b alone, or with a CDK4/6 inhibitor, Palbociclib, alone, or with the combination of ER degrader 160b and Palbociclib.
# ER-positive T47D cells = assay: T47D cell growth inhibition (CellTiter-Glo, 6 days), ER degrader plus CDK4/6 inhibitor; assay type: cell-based, human
# [2] = tested on: MCF7 human xenograft tumors; assay: Anti-tumor efficacy in MCF7 human xenograft tumors; assay type: in vivo; conditions: BALB/c nude mouse, 17β-estradiol tablet, treated for 21 days, versus each agent alone
# Description: MCF-7 cells, a breast cancer cell cline, (10×10^6) in 0.1 mL of PBS mixed with 0.1 mL matrigel (total 0.2 mL) were inoculated subcutaneously at the right flank of each mouse, which has been implanted with 17β-estradiol (0.18 mg) tablet subcutaneously in the left flank three days before. When the average tumor volume reaches approximately 175 mm^3, the animals were randomized and treatment was started.
# MCF-7 tumor cells (10×10^6) in 0.1 mL of PBS mixed with 0.1 mL matrigel (total 0.2 mL) were inoculated subcutaneously at the right flank of each BALB/c nude mouse, which has been implanted with 17β-estradiol (0.18 mg) tablet subcutaneously in the left flank three days before. When the average tumor volume reached approximately 175 mm^3, the animals were randomized and treated for 21 days with an ER degrader 160a alone, or with a CDK4/6 inhibitor, Palbociclib, alone, or with the combination of ER degrader 160a and Palbociclib.
# MCF-7 tumor cells (10×10^6) in 0.1 mL of PBS mixed with 0.1 mL matrigel (total 0.2 mL) were inoculated subcutaneously at the right flank of each BALB/c nude mouse, which has been implanted with 17β-estradiol (0.18 mg) tablet subcutaneously in the left flank three days before. […]
Structure (SMILES),"tumor growth inhibition, combination with Palbociclib [1]","cell growth inhibition, combination with Abemaciclib (ER-positive T47D cells; ER degrader at increasing concentrations combined with Abemaciclib 10, 30, 100 nM, versus single agent)","cell growth inhibition, combination with Palbociclib (ER-positive T47D cells; ER degrader at increasing concentrations combined with Palbociclib 10, 30, 100 nM, versus each agent alone)","tumor growth inhibition, combination with Palbociclib [2]"
CC/C(=C(\c1ccc(O)cc1)c1ccc(N2CCC(CN3CCN(c4ccc5c(c4)CN([C@H]4CCC(=O)NC4=O)C5=O)CC3)CC2)cc1)c1ccccc1 [160b],synergizes with CDK4/6 inhibitor Palbociclib in vivo to inhibit tumor growth with greater efficacy than the ER degrader or CDK4/6 inhibitor alone,–,–,–
"CCC(=C(c1ccc(O)cc1)c1ccc(N2CCC(CN3CCN(c4ccc5c(c4)CN([C@H]4CCC(=O)NC4=O)C5=O)CC3)CC2)cc1)c1ccccc1 [160a, (E)/(Z)-(S)-3-(5-(4-((1-(4-(1-(4-hydroxyphenyl)-2-phenylbut-1-en-1-yl)phenyl)piperidin-4-yl)methyl)piperazin-1-yl)-1-oxoisoindolin-2-yl)piperidine-2,6-dione]",–,synergizes with CDK4/6 inhibitor Abemaciclib in vitro to inhibit cell growth with greater efficacy than the ER degrader alone,synergizes with CDK4/6 inhibitor Palbociclib in vitro to inhibit cell growth with greater efficacy than the ER degrader or CDK4/6 inhibitor alone,synergizes with CDK4/6 inhibitor Palbociclib in vivo to inhibit tumor growth with greater efficacy than the ER degrader or CDK4/6 inhibitor alone
